How the values were obtained:
metastatic melanoma = experiment: Phase II M D Anderson trial of paclitaxel Q4Dx3 every 21 days, tumor responses; assay type: in vivo, human
Source text: Cytokines and therapeutic agents which may be used include, for example, platinum compounds (e.g., spiroplatin, cisplatin, and carboplatin), thalidomide, methotrexate, adriamycin, mitomycin, ansamitocin, bleomycin, cytosine arabinoside, arabinosyl adenine, mercaptopolylysine, vincristine, busulfan, chlorambucil, melphalan (e.g., PAM, L-PAM or phenylalanine mustard), mercaptopurine, mitotane, carmustine, procarbazine hydrochloride dactinomycin (actinomycin D), daunorubicin hydrochloride, doxorubicin hydrochloride, taxol, mitomycin, plicamycin (mithramycin), aminoglutethimide, estramustine phosphate sodium, flutamide, leuprolide acetate, megestrol acetate, tamoxifen citrate, testolactone, trilostane, amsacrine (m-AMSA), asparaginase (L-asparaginase) Erwina asparaginase, etoposide (VP-16), interferon α-2a, interferon α-2b, teniposide (VM-26), vinblastine sulfate (VLB), vincristine sulfate, bleomycin, bleomycin sulfate, methotrexate, adriamycin, and arabinosyl; biological response modifiers such as muramyldipeptide, muramyltripeptide, microbial cell wall components, lymphokines (e.g., bacterial endotoxin such as lipopolysaccharide, macrophage activation factor), sub-units of bacteria (such as Mycobacteria, Corynebacteria), the synthetic dipeptide N-acetyl-muramyl-L-alanyl-D-isoglutamine; hormones such as growth hormone, melanocyte stimulating hormone, estradiol, beclomethasone dipropionate, betamethasone, betamethasone acetate and betamethasone sodium phosphate, vetamethasone disodium phosphate, vetamethasone sodium phosphate, cortisone acetate, dexamethasone, dexamethasone acetate, dexamethasone sodium phosphate, flunisolide, hydrocortisone, hydrocortisone acetate, hydrocortisone cypionate, hydrocortisone sodium phosphate, hydrocortisone sodium succinate, methylprednisolone, methylprednisolone acetate, methylprednisolone sodium succinate, paramethasone acetate, prednisolone, prednisolone acetate, prednisolone sodium phosphate, prednisolone tebutate, prednisone, triamcinolone, triamcinolone acetonide, triamcinolone diacetate, triamcinolone hexacetonide and fludrocortisone acetate; immunoadjuvants and cytokines may also be employed, including interleukins (e.g., IL-1, IL-2, IL-3, IL-6), leukemia inhibitory factor, interferons, such as INF-α, TGF-beta, erythropoietin, TNF, lymphotoxin, and thrombopoietin; thalidomide and/or other agents to inhibit the production and/or action of cytokine/growth factors such as M-α, IGF-1, EGF, TGF α, IL-1β, MGSA and bFGF in different cell types involved in tumor growth and/or angiogenesis of melanoma.

[1] = tested on: adult leukemia, solid tumors, and pediatric solid tumor patients; experiment: Earlier published trials of the Q4D paclitaxel schedule; assay type: in vivo, human; settings: one patient with a recurrent large metastatic melanoma
Source text: An added benefit to this regimen includes a reduction in myelosupression. To this end, we devised the Q4 day (Q4D)×3 every 21-day treatment schedule which has the added value of increasing the dose intensity during each 21-day treatment period beyond that of the once every 21-day schedule (Ainsworth S. K., and Helson, L., U.S. Pat. No. 5,696,153 issued Dec. 9, 1997). […] During these trials an anecdotal twelve-month partial response in a patient with a recurrent large metastatic melanoma was observed. […]

patients with melanoma [2] = tested on: patients with melanoma
patients with melanoma [3] = settings: cited from earlier work
[4] = 17 patients, 90 mg/M^2 Q4 days x3

CC(=O)O[C@H]1C(=O)[C@@]2(C)[C@H]([C@H](OC(=O)c3ccccc3)[C@]3(O)C[C@H](OC(=O)[C@H](O)[C@@H](NC(=O)c4ccccc4)c4ccccc4)C(C)=C1C3(C)C)[C@]1(OC(C)=O)CO[C@@H]1C[C@@H]2O [paclitaxel]
tumor volume decrease (metastatic melanoma; Patient #1, after another two courses (four in all)): 83%
decrease in liver metastases volume (metastatic melanoma; Patient #1, after two courses at 270 mg/M^2/course): 41%
decrease in lung metastases (metastatic melanoma; Patient #2, 270 mg/M^2/course): 43%
tumor control maintained, number of courses (metastatic melanoma; Patient #2, 270 mg/M^2/course): eight
decrease in tumor volume (metastatic melanoma; Patient #3, scapular primary, after 4 courses at 270 mg/M^2/course): 39%
decrease in tumor volume (metastatic melanoma; Patient #4, right calf primary, after 4 courses at 270 mg/M^2/course): 15%
decrease in tumor volume (metastatic melanoma; Patient #5, right heel mass, after 2 courses at 270 Mg/M^2/course): 12%
clinical response (metastatic melanoma; Patient #6, during 4 courses at 270 mg/M^2/course): stable disease
clinical response (metastatic melanoma; Patient #7, ciliochoroidal primary, no previous chemotherapy, after 3 courses at 270 mg/M^2/course): stable disease
clinical response (metastatic melanoma; Patient #8, tumor of dorsum of right foot, previously treated, during two courses at 270 mg/M^2/course): stable disease
clinical response (metastatic melanoma; Patient #9, non-choroidal melanoma, no prior chemotherapy, during 6 courses at 270 mg/M^2/course): stable disease
objective responses, tumor reduction (metastatic melanoma; interim analysis, first 21 patients, 90 mg/M^2/dose Q4D, advanced heavily pretreated melanoma): greater than 50%
reductions in hepatic tumor masses (metastatic melanoma; interim analysis, sustained over one month, additional two patients of first 21, 90 mg/M^2/dose Q4D): 25-40%
duration of anecdotal partial response [1]: twelve
associated toxicity versus 200 mg/M^2 Q 21-day schedule (patients with melanoma [2]; 270 mg/M^2 per 21 days, Q4D schedule): significantly less
Grade 3 abdominal pain (sufficient to interfere with function) (patients with melanoma [2]; [4]): 3 patients
Grade 3 anemia (between 6.5-7.9 grams/100 ml blood) (patients with melanoma [2]; [4]): 2 patients
Grade 3 diarrhea (over 7-9 stools/day) (patients with melanoma [2]; [4]): 2 patients
Grade 3 edema (>20% weight gain) (patients with melanoma [2]; [4]): 1 patient
Grade 3 fatigue (objective weakness with impairment of function) (patients with melanoma [2]; [4]): 4 patients
Grade 3 granulocytopenia (between 0.5-0.9x10^3/mm^3) (patients with melanoma [2]; [4]): 6 patients
Grade 3 increased alkaline phosphatase levels (between 5.1-20xN) (patients with melanoma [2]; [4]): 2 patients
Grade 3 toxicity, number of patients (patients with melanoma [2]; [4]): 11 patients
Grade 3 toxicity, number of times (patients with melanoma [2]; [4]): 21 times
Grade 4 BUN increase (greater than 10 times normal values) (patients with melanoma [2]; [4]): 1 patient
Grade 4 granulocytopenia (less than 0.5x10^3/mm^3) (patients with melanoma [2]; [4]): 4 patients
Grade 4 leukopenia (less than 1.0x10^3/mm^3) (patients with melanoma [2]; [4]): 2 patients
Grade 4 toxicity, number of patients (patients with melanoma [2]; [4]): 3 patients
major side effect (patients with melanoma [2]; Patient #2, eight courses at 270 mg/M^2/course): paresthesia
partial responses in patients with melanoma (patients with melanoma [3]; 24-hour infusion, 250 mg/M^2 once every three weeks (Legha 1990)): 3/25
paclitaxel dose a majority of the melanoma patients could tolerate (patients with melanoma [3]; Legha 1990): ≤ 200 mg/M^2
objective responses (patients with melanoma [3]; phase II, same schedule (24-hour infusion 250 mg/M^2 q3 weeks), 28 patients (Einzig 1988)): five
maximum tolerated dose intensity under previous regimens (patients with melanoma [3]; three 175 mg/M^2 doses given every 21 days (63-day period)): 525 mg/M^2
